In ChEMBL document CHEMBL1139972, “Dihydro-[1H]-quinolin-2-ones as retinoid X receptor (RXR) agonists for potential treatment of dyslipidemia” (Bioorg Med Chem Lett, 2007) one finds EC50 and Activity data, which are given here for 26 compounds.

Bounds are passed on as bounds.

The nature of experiment [1]: Activity at RXR-LXR heterodimer assessed as induction of ABCA1 mRNA. Also noted: species or system Homo sapiens.
For experiment [2], the target named is T1, Retinoic acid receptor RXR-alpha (Homo sapiens) (UniProt P19793).
T1 sequence (whole entry): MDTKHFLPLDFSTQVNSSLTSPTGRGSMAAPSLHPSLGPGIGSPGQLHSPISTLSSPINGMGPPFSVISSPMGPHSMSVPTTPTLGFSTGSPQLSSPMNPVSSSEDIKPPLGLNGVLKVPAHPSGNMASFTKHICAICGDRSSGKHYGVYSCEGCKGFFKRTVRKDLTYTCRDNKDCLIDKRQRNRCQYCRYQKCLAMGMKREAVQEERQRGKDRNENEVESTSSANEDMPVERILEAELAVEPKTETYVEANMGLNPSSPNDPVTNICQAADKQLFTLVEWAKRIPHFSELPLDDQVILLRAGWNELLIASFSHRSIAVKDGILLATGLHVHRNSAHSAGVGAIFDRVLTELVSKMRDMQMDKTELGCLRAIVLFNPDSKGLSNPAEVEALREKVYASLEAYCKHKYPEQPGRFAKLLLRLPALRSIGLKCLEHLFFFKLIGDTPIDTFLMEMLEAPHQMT
Kind of experiment: Activity at RXRalpha by GAL4DNA cotransfection assay relative to 5-((3-(1-ethyl-4,4,6-trimethyl-2-oxo-1,2,3,4-tetrahydroquinolin-7-yl)-4-(trifluoromethoxy)phenyl)methylene)thiazolidine-2,4-dione. Further details: concentration or dose not given beside the values.

The target in experiment [3] is T2, Retinoic acid receptor RXR-alpha (Homo sapiens, UniProt P19793).
T2 sequence (P19793 whole entry): T1 sequence (whole entry)
Put plainly: Activity at RXRalpha by GAL4DNA cotransfection assay.

The nature of experiment [4]: Activity at RXR-PPARgamma in human preadipocytes assessed as induction of adipocytes fatty acid binding protein. The format is cell-based.
The species named for a further experiment is Homo sapiens. Put plainly: Activation of RXR-LXR heterodimer assessed as induction of ABCA1 mRNA relative to 5-((3-(1-ethyl-4,4,6-trimethyl-2-oxo-1,2,3,4-tetrahydroquinolin-7-yl)-4-(trifluoromethoxy)phenyl)methylene)thiazolidine-2,4-dione. Further details: concentration or dose not given beside the values.
Experiment [5] has as its system Rattus norvegicus. Kind of experiment: Effect on serum cholesterol level in high cholesterol diet fed Sprague-Dawley rat at 10 mg/kg, po after 8 days relative to control. Type of experiment: functional.
For experiment [6], the system named is Rattus norvegicus. Put plainly: Effect on serum triglyceride level in high cholesterol diet fed Sprague-Dawley rat at 10 mg/kg, po after 8 days relative to control. Type of experiment: functional.
Experiment [7] relates to Rattus norvegicus. Put plainly: Effect on serum LDL-C level in high cholesterol diet fed Sprague-Dawley rat at 10 mg/kg, po after 8 days relative to control. Type of experiment: functional.
Experiment [8] relates to Rattus norvegicus. Put plainly: Effect on serum HDL-C level in high cholesterol diet fed Sprague-Dawley rat at 10 mg/kg, po after 8 days relative to control. The format is functional.

The EC50 is the concentration at which the effect is half-maximal.

For `COc1ccc(C2CC2C(=O)O)cc1-c1cc2c(cc1C)C(C)(C)CC(=O)N2C(C)C` (racemic), the results for the 50% effective concentration (EC50) in [1] and in experiment [3] were 1520 nM and 208 nM, respectively. Further, in [2], the Activity worked out at 50%.

For `Cc1cc2c(cc1-c1cc(CCC(=O)O)ccc1OC(F)(F)F)N(C)C(=O)CC2(C)C`, the EC50 is 53 nM in experiment [1] and 45.9 nM in experiment [3]. In experiment [2], this compound returned an Activity of 91%.

For the compound `CCN1C(=O)CC(C)(C)c2cc(C)c(-c3cc(OC(C)(C)C(=O)O)ccc3OC(F)(F)F)cc21`, the EC50 in [1] is > 3000 nM.

As for `COc1ccc(CCC(=O)O)cc1-c1cc2c(cc1C)C(C)(C)CC(=O)N2C(C)C`, the EC50 in [1] is > 3000 nM; in experiment [3] it was 361 nM. In experiment [2], this compound had an Activity of 60%.

In the case of `Cc1cc2c(cc1-c1cc(C3CC3C(=O)O)ccc1OC(F)(F)F)N(C(C)C)C(=O)CC2(C)C` (racemic), the EC50 was > 3000 nM in experiment [1] and 5 nM in experiment [3]. Moreover, the Activity in experiment [2] worked out at 85%.

In the case of `CCN1C(=O)CC(C)(C)c2cc(C)c(-c3cc(CCC(=O)O)ccc3OCC(F)(F)F)cc21`, the EC50 in experiment [4] was > 3000 nM; in experiment [1], > 3000 nM; in experiment [3], 70.2 nM. The Activity in experiment [2] was 90%.

With `Cc1cc2c(cc1-c1cc(CCC(=O)O)ccc1OCC(F)(F)F)N(C(C)C)C(=O)CC2(C)C`, the EC50 in experiment [1] amounted to 369 nM; in [3], 36.5 nM. Besides, the Activity was 79% in experiment [2] and 45% in the experiment listed under Homo sapiens.

On to `CCN1C(=O)CC(C)(C)c2cc(C)c(-c3cc(/C=C(\C)C(=O)O)ccc3OC(F)(F)F)cc21`, for which the EC50 in experiment [1] amounted to 100 nM; in experiment [3], 27.9 nM. Besides, the Activity in experiment [2] came out at 81%; in the experiment listed under Homo sapiens it was 49%.

Regarding `CCN1C(=O)CC(C)(C)c2cc(C)c(-c3cc(/C(C)=C/C(=O)O)ccc3OC(F)(F)F)cc21`, the EC50 in [3] is > 10000 nM.

Turning to `CCN1C(=O)CC(C)(C)c2cc(C)c(-c3cc(CC(C)C(=O)O)ccc3OC(F)(F)F)cc21` (stereo not given), the EC50 in [1] is > 3000 nM; in experiment [3] it was 760 nM. In [2], this compound had an Activity of 85%.

Consider `Cc1cc2c(cc1-c1cc(CCC(=O)O)ccc1OC(F)(F)F)N(C(C)C)C(=O)CC2(C)C`, for which, in experiment [1], the EC50 was found to be 1 nM. The Activity in [2] stood at 80%; in the experiment listed under Homo sapiens, 59%.

Turning to `CCN1C(=O)CC(C)(C)c2cc(C)c(-c3cc(C#CC(=O)O)ccc3OC(F)(F)F)cc21`, the EC50 in experiment [1] is > 3000 nM.

Regarding `Cc1cc2c(cc1-c1cc(C3CC3C(=O)O)ccc1OCC(F)(F)F)N(C)C(=O)CC2(C)C` (racemic), the EC50 in experiment [1] was > 3000 nM; in [3] it was 144 nM. Also, the Activity in [2] was determined as 108%.

`CCN1C(=O)CC(C)(C)c2cc(C)c(-c3cc(C4CC4C(=O)O)ccc3OC(F)(F)F)cc21` (racemic): the half-maximal effective concentration (EC50) in experiment [1] amounted to 17.4 nM; in experiment [3], 19.2 nM. Also, the Activity in experiment [2] was determined as 88%.

For the compound `CCN1C(=O)CC(C)(C)c2cc(C)c(-c3cc([C@H]4C[C@@H]4C(=O)O)ccc3OC(F)(F)F)cc21`, the concentration giving a half-maximal response (EC50) in experiment [1] was > 3000 nM; in [3] it was 361 nM. For the same compound, the Activity in experiment [2] was determined as 92%.

With `CCN1C(=O)CC(C)(C)c2cc(C)c(-c3cc([C@@H]4C[C@H]4C(=O)O)ccc3OC(F)(F)F)cc21`, the EC50 is 581 nM in experiment [4], > 3000 nM in experiment [1] and 2.3 nM in experiment [3]. In addition, the Activity in [2] worked out at 85%.

With `Cc1cc2c(cc1-c1cc([C@@H]3C[C@H]3C(=O)O)ccc1OC(F)(F)F)N(C(C)C)C(=O)CC2(C)C`, the concentration for a half-maximal effect (EC50) in [4] is 266 nM; in [1], > 3000 nM; in experiment [3], 10 nM. For the same compound, the Activity in [2] is 70%.

Regarding `Cc1cc2c(cc1-c1cc([C@H]3C[C@@H]3C(=O)O)ccc1OC(F)(F)F)N(C(C)C)C(=O)CC2(C)C`, the EC50 was > 3000 nM in experiment [1] and 198 nM in experiment [3]. The Activity in experiment [2] is 50%.

As to `CCN1C(=O)CC(C)(C)c2cc(C)c(-c3cc(C(C)CC(=O)O)ccc3OC(F)(F)F)cc21` (stereo not given), the EC50 amounted to 347 nM in [1] and 37.7 nM in experiment [3]. The results for the Activity (in experiment [2]; in the experiment listed under Homo sapiens) were 99% and 160%, respectively.

For the compound `CCN1C(=O)CC(C)(C)c2cc(C)c(-c3cc(C4CC4C(=O)O)ccc3OCC(F)(F)F)cc21` (racemic), the figures for the EC50 in [1] and in experiment [3] were > 3000 nM and 116 nM, respectively. Besides, the Activity in experiment [2] amounted to 87%.

On to `CCN1C(=O)CC(C)(C)c2cc(C)c(-c3cc(OCC(=O)O)ccc3OC(F)(F)F)cc21`, for which the EC50 in [1] was > 3000 nM.

Turning to `CCN1C(=O)CC(C)(C)c2cc(C)c(-c3cc(/C=C4\SC(=O)NC4=O)ccc3OC(F)(F)F)cc21`, the Activity came to 267 mg/dL in the experiment with Rattus norvegicus [5], 286 mg/dL in the experiment with Rattus norvegicus [6], 41 mg/dL with Rattus norvegicus [7] and 47 mg/dL in the experiment with Rattus norvegicus [8]. In addition, the 50% effective concentration (EC50) in experiment [4] came out at 139 nM; in experiment [1] it was 180 nM.

Consider `CCN1C(=O)CC(C)(C)c2cc(C)c(-c3cc(CCCC(=O)O)ccc3OC(F)(F)F)cc21`, for which the results for the EC50 in [1] and in experiment [3] were > 3000 nM and 527 nM, respectively. The Activity in experiment [2] was found to be 70%.

Take `Cc1cc2c(cc1-c1cc(CCC(=O)O)ccc1OC(F)(F)F)N(CC(F)(F)F)C(=O)CC2(C)C`: the concentration for a half-maximal effect (EC50) in [1] was > 3000 nM; in [3], 1.4 nM. Moreover, the Activity in experiment [2] was determined as 100%.

Take `CCN1C(=O)CC(C)(C)c2cc(C)c(-c3cc(/C=C\C(=O)O)ccc3OC(F)(F)F)cc21`: the concentration giving a half-maximal response (EC50) was determined as 886 nM in [1] and 39.1 nM in experiment [3]. Besides, the Activity is 97% in experiment [2] and 75% in the experiment listed under Homo sapiens.

For the compound `CCN1C(=O)CC(C)(C)c2cc(C)c(-c3cc(/C=C/C(=O)O)ccc3OC(F)(F)F)cc21`, in experiment [1], the EC50 came to 3.6 nM. The Activity was 115% in experiment [2] and 81% in the experiment listed under Homo sapiens.
